The results in this text go back to US20110028442A1, “DERIVATIVES OF 4-(2-AMINO-1-HYDROXYETHYL) PHENOL AS AGONISTS OF THE BETA2 ADRENERGIC RECEPTOR” (priority 2008, published 2011).

Experiment [1] concerns the target T1, human adrenergic β2 receptor (Homo sapiens, UniProt P07550).
T1 construct: purchased Perkin Elmer; host or cells: Sf9 cells
Put plainly: Human adrenergic β2 receptor binding assay (3H-CGP12177, Sf9 membranes). The conditions noted are these: for IC50: membranes from Sf9 cells, 0.14 nM 3H-CGP12177, 60 minutes at room temperature; for β1/β2 ratio: ratio of human β1 IC50 to human β2 IC50. Here is the method: (§1) Human Adrenergic β1 and β2 Receptor Binding Assays
(§2) The study of binding to human adrenergic β1 and β2 receptors was performed using commercial membranes prepared from Sf9 cells where they are overexpressed (Perkin Elmer).
(§3) The membrane suspensions (16 μg/well for β1 and 5 μg/well for β2) in assay buffer, 75 mM Tris/HCl with 12.5 mM MgCl2 and 2 mM EDTA pH=7.4, were incubated with 0.14 nM 3H-CGP12177 (Amersham) and different concentrations of the test compounds, in a final volume of 250 μl, in GFC Multiscreen 96 well plates (Millipore) pretreated with +0.3% PEI. Non specific binding was measured in the presence of 1 μM propanolol. Incubation was for 60 minutes at room temperature and with gentle shaking. The binding reactions were terminated by filtration and washing with 2.5 volumes of Tris/HCl 50 mM pH=7.4. The affinity of each test compound to the receptor was determined by using at least six different concentrations ran in duplicate. IC50 values were obtained by non-linear regression using SAS.

The target of experiment [2] is T2, human adrenergic β1 receptor (Homo sapiens, UniProt P08588).
T2 construct: purchased Perkin Elmer; host or cells: Sf9 cells
Nature of the experiment: Human adrenergic β1 receptor binding assay (3H-CGP12177, Sf9 membranes). As to conditions: membranes from Sf9 cells, 0.14 nM 3H-CGP12177, 60 minutes at room temperature. Here is the method:
as §1, §2, §3

T2 sequence (P08588 whole entry): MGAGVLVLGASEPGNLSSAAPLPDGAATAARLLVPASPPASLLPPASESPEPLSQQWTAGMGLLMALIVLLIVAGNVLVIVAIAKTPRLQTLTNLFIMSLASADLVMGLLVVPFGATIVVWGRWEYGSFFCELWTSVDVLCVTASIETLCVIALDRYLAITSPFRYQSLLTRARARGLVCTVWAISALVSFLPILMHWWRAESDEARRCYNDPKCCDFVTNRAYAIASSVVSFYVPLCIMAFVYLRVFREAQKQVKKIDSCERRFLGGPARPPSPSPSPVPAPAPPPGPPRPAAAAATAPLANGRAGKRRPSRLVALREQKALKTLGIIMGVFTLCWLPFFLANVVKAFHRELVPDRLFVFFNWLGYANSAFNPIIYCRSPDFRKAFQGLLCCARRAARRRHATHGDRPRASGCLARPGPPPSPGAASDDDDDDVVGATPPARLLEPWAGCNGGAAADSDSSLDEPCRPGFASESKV
T1 sequence (P07550 whole entry): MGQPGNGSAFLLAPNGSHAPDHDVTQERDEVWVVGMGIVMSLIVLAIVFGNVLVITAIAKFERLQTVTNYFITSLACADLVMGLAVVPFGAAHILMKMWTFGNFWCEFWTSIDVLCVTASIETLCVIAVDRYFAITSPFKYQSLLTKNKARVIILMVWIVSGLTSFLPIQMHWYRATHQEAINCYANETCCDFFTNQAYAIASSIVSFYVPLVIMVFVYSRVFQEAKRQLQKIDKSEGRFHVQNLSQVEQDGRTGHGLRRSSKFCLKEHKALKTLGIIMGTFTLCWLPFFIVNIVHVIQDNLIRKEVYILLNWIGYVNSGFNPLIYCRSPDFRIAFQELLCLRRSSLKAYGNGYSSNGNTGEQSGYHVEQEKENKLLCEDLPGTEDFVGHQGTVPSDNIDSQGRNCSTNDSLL

The IC50 is the point on the concentration scale where inhibition reaches its midpoint. A high value points to a need for much substance. As to `C[C@@H](Cc1cccc(NC(=O)Nc2ccccc2-c2ccccc2)c1)NC[C@H](O)c1ccc(O)c2[nH]c(=O)ccc12` [Example 32, N-biphenyl-2-yl-N′-[3-(2-{[(2R)-2-hydroxy-2-(8-hydroxy-2-oxo-1,2-dihydroquinolin-5-yl)ethyl]amino}propyl)phenyl]urea, b isomer], in experiment [1], the IC50 is 2.8 nM and the β1/β2 ratio was determined as 9.1. Further, the concentration for half-maximal inhibition (IC50) in experiment [2] came to 25.5 nM.

With `O=C(NCCc1ccccc1)Nc1cccc(CCNCC(O)c2ccc(O)c3[nH]c(=O)ccc23)c1` [Example 11, N-[3-(2-{[(2R,S)-2-hydroxy-2-(8-hydroxy-2-oxo-1,2-dihydroquinolin-5-yl)ethyl]amino}ethyl)phenyl]-N′-(2-phenylethyl)urea], in experiment [1], the concentration for half-maximal inhibition (IC50) turned out to be 6.2 nM and the β1/β2 ratio was 1.4. Besides, in experiment [2], the IC50 was determined as 9 nM.

`O=C(NCCCc1ccccc1)Nc1cccc(CCNCC(O)c2ccc(O)c3[nH]c(=O)ccc23)c1` [Example 12, N-[3-(2-{[(2R,S)-2-hydroxy-2-(8-hydroxy-2-oxo-1,2-dihydroquinolin-5-yl)ethyl]amino}ethyl)phenyl]-N′-(3-phenylpropyl)urea]: in experiment [1], the IC50 stood at 2.6 nM and the β1/β2 ratio is given as 7.4. The compound further registered an IC50 in experiment [2] of 19.5 nM.

Regarding `O=C(Nc1ccccc1)Nc1cccc(CCNCC(O)c2ccc(O)c3[nH]c(=O)ccc23)c1` [Example 15, N-[3-(2-{[(2R,S)-2-hydroxy-2-(8-hydroxy-2-oxo-1,2-dihydroquinolin-5-yl)ethyl]amino}ethyl)phenyl]-N′-phenylurea], the figures for the IC50 in experiment [1] and in experiment [2] were 10.5 nM and 4.4 nM, respectively. The β1/β2 ratio in experiment [1] is 0.4.

As to `O=C(Nc1cccc(CCNC[C@H](O)c2ccc(O)c3[nH]c(=O)ccc23)c1)Nc1ccccc1-c1ccccc1` [Example 27, N-biphenyl-2-yl-N′-[3-(2-{[(2R)-2-hydroxy-2-(8-hydroxy-2-oxo-1,2-dihydroquinolin-5-yl)ethyl]amino}ethyl)phenyl]urea], the IC50 in experiment [1] worked out at 9.7 nM; in experiment [2], 24 nM. For the same compound, the β1/β2 ratio in experiment [1] was determined as 2.5.

Consider `CC(C)(C)c1ccc(CNC(=O)Nc2cccc(CCNC[C@H](O)c3ccc(O)c4[nH]c(=O)ccc34)c2)cc1` (racemic) [Example 33, N-(4-tert-butylbenzyl)-N′-[3-(2-{[(2R,S)-2-hydroxy-2-(8-hydroxy-2-oxo-1,2-dihydroquinolin-5-yl)ethyl]amino}ethyl)phenyl]urea], for which, in experiment [1], the half-maximal inhibitory concentration (IC50) was 7.6 nM and the β1/β2 ratio was 6.0. The compound also showed a half-inhibitory concentration (IC50) in experiment [2] of 45.5 nM.

On to `COc1ccccc1CNC(=O)Nc1cccc(CC(C)NCC(O)c2ccc(O)c3[nH]c(=O)ccc23)c1` [Example 6, N-[3-(2R,S)-2-{[(2R,S)-2-hydroxy-2-(8-hydroxy-2-oxo-1,2-dihydroquinolin-5-yl)ethyl]amino}propyl)phenyl]-N′-(2-methoxybenzyl)urea], for which, in experiment [1], the half-inhibitory concentration (IC50) came to 4.6 nM and the β1/β2 ratio was 11.7. This compound also had a concentration for half-maximal inhibition (IC50) in experiment [2] of 54 nM.

Consider `O=C(Nc1cccc(CCNC[C@H](O)c2ccc(O)c3[nH]c(=O)ccc23)c1)NC(c1ccccc1)c1ccccc1` [Example 26, N-(diphenylmethyl)-N′-[3-(2-{[(2R)-2-hydroxy-2-(8-hydroxy-2-oxo-1,2-dihydroquinolin-5-yl)ethyl]amino}ethyl)phenyl]urea], for which, in experiment [1], the half-inhibitory concentration (IC50) amounted to 5.3 nM and the β1/β2 ratio stood at 4.6. The IC50 in experiment [2] amounted to 24.5 nM.

In the case of `COc1ccccc1CNC(=O)Nc1cccc(CCNCC(O)c2ccc(O)c3[nH]c(=O)ccc23)c1` [Example 9, N-[3-(2-{[(2R,S)-2-hydroxy-2-(8-hydroxy-2-oxo-1,2-dihydroquinolin-5-yl)ethyl]amino}ethyl)phenyl]-N′-(2-methoxybenzyl)urea], in experiment [1], the IC50 amounted to 5.6 nM and the β1/β2 ratio was 7.9. Also, the half-inhibitory concentration (IC50) in experiment [2] stood at 44.5 nM.

Turning to `O=C(NCc1ccccc1)Nc1cccc(CCNCC(O)c2ccc(O)c3[nH]c(=O)ccc23)c1` [Example 8, N-benzyl-N′-[3-(2-{[(2R,S)-2-hydroxy-2-(8-hydroxy-2-oxo-1,2-dihydroquinolin-5-yl)ethyl]amino}ethyl)phenyl]urea], the figures for the IC50 in experiment [1] and in experiment [2] were 4.4 nM and 49 nM, respectively. For the same compound, the β1/β2 ratio in experiment [1] turned out to be 11.0.

In the case of `O=C(NCCCCc1ccccc1)Nc1cccc(CCNCC(O)c2ccc(O)c3[nH]c(=O)ccc23)c1` [Example 20, N-[3-(2-{[(2R,S)-2-hydroxy-2-(8-hydroxy-2-oxo-1,2-dihydroquinolin-5-yl)ethyl]amino}ethyl)phenyl]-N′-(4-phenylbutyl)urea], in experiment [1], the concentration for half-maximal inhibition (IC50) came out at 2.9 nM and the β1/β2 ratio was 4.5. This compound also had an IC50 in experiment [2] of 13 nM.

With `O=C(NCC12CC3CC(CC(C3)C1)C2)Nc1cccc(CCNCC(O)c2ccc(O)c3[nH]c(=O)ccc23)c1` [Example 23, N-(1-adamantylmethyl)-N′-[3-(2-{[(2R,S)-2-hydroxy-2-(8-hydroxy-2-oxo-1,2-dihydroquinolin-5-yl)ethyl]amino}ethyl)phenyl]urea], the IC50 in experiment [1] was 5.9 nM; in experiment [2], 36 nM.

For `O=C(Nc1cccc(CCNCC(O)c2ccc(O)c3[nH]c(=O)ccc23)c1)NC12CC3CC(CC(C3)C1)C2` [Example 16, N-1-adamantyl-N′-[3-(2-{[(2R,S)-2-hydroxy-2-(8-hydroxy-2-oxo-1,2-dihydroquinolin-5-yl)ethyl]amino}ethyl)phenyl]urea], the values for the half-inhibitory concentration (IC50) in experiment [1] and in experiment [2] were 10 nM and 38.5 nM, respectively. Besides, the β1/β2 ratio in experiment [1] is 3.8.

On to `CC(Cc1cccc(NC(=O)NCc2ccccc2)c1)NCC(O)c1ccc(O)c2[nH]c(=O)ccc12` [Example 3, N-benzyl-N′-[3-((2R,S)-2-{[(2R,S)-2-hydroxy-2-(8-hydroxy-2-oxo-1,2-dihydroquinolin-5-yl)ethyl]amino}propyl)phenyl]urea], for which, in experiment [1], the IC50 was determined as 12 nM and the β1/β2 ratio is reported as 8.2. The compound further displayed an IC50 in experiment [2] of 98 nM.

For the compound `O=C(NCc1c(Cl)cccc1Cl)Nc1cccc(CCNCC(O)c2ccc(O)c3[nH]c(=O)ccc23)c1` [Example 17, N-(2,6-dichlorobenzyl)-N′-[3-(2-{[(2R,S)-2-hydroxy-2-(8-hydroxy-2-oxo-1,2-dihydroquinolin-5-yl)ethyl]amino}ethyl)phenyl]urea], in experiment [1], the concentration for half-maximal inhibition (IC50) came to 6 nM and the β1/β2 ratio is reported as 13. For the same compound, the IC50 in experiment [2] was determined as 78 nM.

For `O=C(Nc1ccc(CCNC[C@H](O)c2ccc(O)c3[nH]c(=O)ccc23)cc1)NC(c1ccccc1)c1ccccc1` [Example 36, N-(diphenylmethyl)-N′-[4-(2-{[(2R)-2-hydroxy-2-(8-hydroxy-2-oxo-1,2-dihydroquinolin-5-yl)ethyl]amino}ethyl)phenyl]urea], in experiment [1], the IC50 worked out at 4.5 nM and the β1/β2 ratio turned out to be 4.3. This compound had an IC50 in experiment [2] of 19.5 nM.
